Residues, ends and D or L forms follow the SMILES beside them. *: point of attachment. NHPh = c1ccc(N*)cc1
Tested on: C57BL/6 mice
Assay: Thermal sensitivity (Hargreaves radiant heat) after intraplantar injection, mice without capsaicin
Assay type: in vivo, mouse
Method: Experiments were performed on 6- to 12-week-old male C57BL/6 mice (The Jackson Laboratory, Bar Harbor, ME) housed in the AAALAC-accredited facility at the University of Texas Medical Branch. Mice were group-housed with up to 5 mice per cage on a 12-to-12-hour light–dark cycle and had access to water and food ad libitum. All protocols were approved by the Institutional Animal Care and Use Committee (IACUC) at the University of Texas Medical Branch and in accordance with the National Institutes of Health (NIH) guidelines.
PW164 and ZL192 were dissolved in DMSO and saline in a ratio of 1:10. 0.1% capsaicin (10% ethanol, 10% Tween-20 in saline; Sigma-Aldrich). All the compounds were injected at the center of the hind paw. The control group received a DMSO-saline mixture. […]
AAV2 viral particles packaged by the University of North Carolina Gene Therapy Core Facility (viral titer ranging […]
Before intrathecal injections in the lumbar region, mice were maintained in an anesthetizing box with 2% isoflurane to induce unconsciousness. Six microliters of viral vector were gently injected into the CSF through a 30-gauge needle with a Hamilton syringe in the lumbar area between vertebrae L4 and L5 by gently gripping the iliac crest of the mouse and inserting the needle with an angle of 45°. The correct procedure was confirmed by the mouse’s tail reflexiv e flick. […]
Assessment of thermal sensitivity
Plantar tests for thermal sensitivity were performed using the Hargreaves apparatus (Ugo Basile, Italy) in mice that were either naïve or received i.p. injection of capsaicin or test compound. A thermal stimulus, generated by an infrared-focused light source, invisible to the rodent, was applied through a glass pane, to the plantar surface of the hind paw of the animal. The response to this stimulus was considered the withdrawal of the stimulated paw (lifting and licking). Light intensity was set up at 30% and the cut-off at the 20 s. The final value of thermal withdrawal latency, expressed in seconds, was the average value of three consecutive trials. […]

CC(=O)N[C@@H](Cc1ccccc1)C(=O)N[C@@H](CC(C)C)C(=O)N1CCC[C@H]1C(=O)N[C@@H](CCCCN)C(=O)Nc1ccccc1 [ZL192] (Ac-FLPK-NHPh)
thermal hypersensitivity in AAV2-shFGF13 mice (ZL192 0.18 mg/mL, i.pl.): absent | thermal sensitivity in AAV2-shCTRL mice (ZL192 0.18 mg/mL, i.pl.): caused mechanical and thermal hypersensitivity | thermal sensitivity (naive WT mice, ZL192 i.pl. 0.06 or 0.18 mg/mL): also seen

From PMC12259270, “Sensory neuron–expressed FGF13 controls nociceptive signaling in diabetic neuropathy models” (The Journal of Clinical Investigation, 2025)
